We go through 14 molecules from US12715865B2, “Modulators of the integrated stress response pathway” (EVOTEC INTERNATIONAL GMBH, priority 2020, dated 2026).

The structures appear in SMILES notation.

In general, IC50 refers to the concentration at which inhibition is half-maximal.

The subject of one assay is Tunicamycin induced ISR (ATF4) in wild-type HEK293 cells. Put plainly: HEK-ATF4 High Content Imaging assay (ATF4 signal ratio between nucleus and cytoplasm). It is filed as cell-based. As to conditions: Homo sapiens, HEK293, 6 h, prevention of Tunicamycin induced ISR, 6 hrs incubation, read-out: Activity (IC50, HEK-ATF4 readout). The procedure: II Biological Assay HEK-ATF4 High Content Imaging Assay
Example compounds were tested in the HEK-ATF4 High Content Imaging assay to assess their pharmacological potency to prevent Tunicamycin induced ISR. Wild-type HEK293 cells were plated in 384-well imaging assay plates at a density of 12,000 cells per well in growth medium (containing DMEM/F12, 10% FBS, 2 mM L-Glutamine, 100 U/mL Penicillin-100 μg/mL Streptomycin) and incubated at 37° C., 5% CO2. 24-hrs later, the medium was changed to 50 μl assay medium per well (DMEM/F12, 0.3% FBS, 2 mM L-Glutamine, 100 U/mL Penicillin-100 μg/mL Streptomycin). Example compounds were serially diluted in dimethyl sulfoxide (DMSO), spotted into intermediate plates and prediluted with assay medium containing 3.3 μM Tunicamycin to give an 11-fold excess of final assay concentration. In addition to the example compound testing area, the plates also contained multiples of control wells for assay normalization purposes, wells containing Tunicamycin but no example compounds (High control), as well as wells containing neither example compound nor Tunicamycin (Low control). The assay was started by transferring 5 μl from the intermediate plate into the assay plates, followed by incubation for 6 hrs at 37° C., 5% CO2. Subsequently, cells were fixed (4% PFA in PBS, 20 min at room temperature) and submitted to indirect ATF4 immunofluorescence staining (primary antibody rabbit anti ATF4, clone D4B8, Cell Signaling Technologies; secondary antibody Alexa Fluor 488 goat anti-rabbit IgG (H+L), Thermofisher Scientific). Nuclei were stained using Hoechst dye (Thermofisher Scientific), and plates were imaged on an Opera Phenix High Content imaging platform equipped with 405 nm and 488 nm excitation. Finally, images were analyzed using script based algorithms. The main readout HEK-ATF4 monitored the ATF4 signal ratio between nucleus and cytoplasm. Tunicamycin induced an increase in the overall ATF4 ratio signal, which was prevented by ISR modulating example compounds. In addition, HEK-CellCount readout was derived from counting the number of stained nuclei corresponding to healthy cells. This readout served as an internal toxicity control.
Turning to `O=C(COc1ccc(Cl)c(F)c1)N[C@H]1[C@@H]2CN(c3nnc(-c4ccc(Cl)cc4)o3)C[C@@H]21` [Example 7, 2-(4-Chloro-3-fluorophenoxy)-N-[(1R,5S,6R)-3-[5-(4-chlorophenyl)-1,3,4-oxadiazol-2-yl]-3-azabicyclo[3.1.0]hexan-6-yl]acetamide], the IC50 was in the range of 500 to 2000 nM. Turning to `O=C(COc1ccc(Cl)c(F)c1)NC1CCN(c2nnc(-c3ccc(Cl)cn3)o2)CC1` [Example 1, 2-(4-chloro-3-fluorophenoxy)-N-{1-[5-(5-chloropyridin-2-yl)-1,3,4-oxadiazol-2-yl]piperidin-4-yl}acetamide], the IC50 was 1 to 500 nM. On the same count and under the same terms, next, `O=C(COc1ccc(Cl)c(F)c1)NC1CCN(c2nnc(OCCOC(F)(F)F)o2)CC1` [Example 9, 2-(4-chloro-3-fluorophenoxy)-N-(1-{5-[2-(trifluoromethoxy)ethoxy]-1,3,4-oxadiazol-2-yl}piperidin-4-yl)acetamide]: 1 to 500 nM. For the molecule `O=C(COc1ccc(Cl)c(F)c1)N[C@@H]1CCCN(c2nnc(-c3ccc(Cl)cc3)o2)CC1` [Example 14, 2-(4-chloro-3-fluorophenoxy)-N-[(4R)-1-[5-(4-chlorophenyl)-1,3,4-oxadiazol-2-yl]azepan-4-yl]acetamide], the IC50 was in the range of 2000 to 15000 nM. Turning to `O=C(COc1ccc(Cl)c(F)c1)N[C@H]1CCCN(c2nnc(-c3ccc(Cl)cc3)o2)CC1` [Example 13, 2-(4-Chloro-3-fluorophenoxy)-N-[(4S)-1-[5-(4-chlorophenyl)-1,3,4-oxadiazol-2-yl]azepan-4-yl]acetamide], the IC50 fell in the range of 500 to 2000 nM. Take `O=C(COc1ccc(Cl)c(F)c1)NC1CCN(c2nnc(CCCC(F)(F)F)o2)CC1` [Example 5, 2-(4-Chloro-3-fluorophenoxy)-N-{1-[5-(4,4,4-trifluorobutyl)-1,3,4-oxadiazol-2-yl]piperidin-4-yl}acetamide]: the IC50 was in the range of 500 to 2000 nM. Same read-out and setting: next, `O=C(COc1ccc(Cl)c(F)c1)NN1CCN(c2nnc(-c3ccc(Cl)cc3)o2)CC1` [Example 8, 2-(4-Chloro-3-fluorophenoxy)-N-{4-[5-(4-chlorophenyl)-1,3,4-oxadiazol-2-yl]piperazin-1-yl}acetamide]: 1 to 500 nM.

Regarding `O=C(COc1ccc(Cl)c(F)c1)NC1CCN(c2nnc(-c3ccc(Cl)cc3)o2)CC1` [Example 4, 2-(4-chloro-3-fluoro-phenoxy)-N-[1-[5-(4-chlorophenyl)-1,3,4-oxadiazol-2-yl]-4-piperidyl]acetamide], the IC50 was 1 to 500 nM. Turning to `O=C(COc1ccc(Cl)c(F)c1)NC1CCCN(c2nnc(-c3ccc(Cl)cc3)o2)CC1` (centres unmarked) [Example 6, 2-(4-chloro-3-fluorophenoxy)-N-{1-[5-(4-chlorophenyl)-1,3,4-oxadiazol-2-yl]azepan-4-yl}acetamide], the 50% inhibitory concentration (IC50) was 500 to 2000 nM.

Turning to `O=C(COc1ccc(Cl)c(F)c1)N[C@H]1CCN(c2nnc(-c3ccc(Cl)cc3)o2)C[C@@H]1O` (stereo in doubt) [Example 12, 2-(4-Chloro-3-fluorophenoxy)-N-[(3S,4S)-1-[5-(4-chlorophenyl)-1,3,4-oxadiazol-2-yl]-3-hydroxypiperidin-4-yl]acetamide], the IC50 lay in the range of 1 to 500 nM. Consider `O=C(COc1cnc(Cl)c(F)c1)NC1CCN(c2nnc(-c3ccc(Cl)cc3)o2)CC1` [Example 2, 2-[(6-chloro-5-fluoropyridin-3-yl)oxy]-N-{1-[5-(4-chlorophenyl)-1,3,4-oxadiazol-2-yl]piperidin-4-yl}acetamide], for which the IC50 lay within 1 to 500 nM. Same read-out and setting: next, `O=C(COc1ccc(Cl)c(F)c1)NC1CCN(c2nnc(N3CC(OC(F)(F)F)C3)o2)CC1` [Example 10, 2-(4-chloro-3-fluorophenoxy)-N-(1-{5-[3-(trifluoromethoxy)azetidin-1-yl]-1,3,4-oxadiazol-2-yl}piperidin-4-yl)acetamide]: 1 to 500 nM.

Still in this assay, the particulars now being: prevention of Tunicamycin induced ISR, 6 hrs incubation, read-out: Activity (IC50, HEK-ATF4 readout).
Turning to `O=C(COc1ccc(Cl)c(F)c1)N[C@@H]1CCN(c2nnc(-c3ccc(Cl)cc3)o2)C[C@H]1O` (stereo in doubt) [Example 11, 2-(4-Chloro-3-fluorophenoxy)-N-[(3R,4R)-1-[5-(4-chlorophenyl)-1,3,4-oxadiazol-2-yl]-3-hydroxypiperidin-4-yl]acetamide], the IC50 lay within 500 to 2000 nM. For `O=C(COc1ccc(Cl)c(F)c1)N[C@@H]1CCN(c2nnc(-c3ccc(Cl)cc3)o2)C[C@H]1O` (stereo in doubt) [Example 3, 2-(4-chloro-3-fluorophenoxy)-N-[(3R*,4R*)-1-[5-(4-chlorophenyl)-1,3,4-oxadiazol-2-yl]-3-hydroxypiperidin-4-yl]acetamide], the half-inhibitory concentration (IC50) lay in the range of 1 to 500 nM.
